From patent US20230250108A1, “TETRAHYDROISOQUINOLINE COMPOUNDS AND USE THEREOF” (JIANGSU SIMCERE PHARMACEUTICAL CO., LTD., priority 2020, published 2023)
Where a name gives a salt, the structure may show the parent alone.

How the values were obtained:
[1] = tested on: Z-138 cells; experiment: Inhibitory activity on tumor cell proliferation (Cell-Titer Glo, 8 days); type: cell-based; conditions: Homo sapiens, 192 h, read-out: Inhibition of cell proliferation Z-138 IC50
Procedure: Materials and cells: Z-138 cells were purchased from ATCC (USA); IMDM medium and penicillin-streptomycin were purchased from Sigma PLC. (USA); horse serum was purchased from Hyclone (USA); 96-well plate was purchased from Corning (USA); and Cell-Titer Glo reagent was purchased from Promega (USA).
Cell culture: Z-138 cells were cultured in an IMDM culture solution containing 10% Horse serum+1% penicillin−streptomycin at 37° C., 5% CO2. Cells in logarithmic growth phase were suitable for the experiment.
Detection of cell proliferation activity: The inhibitory activities of the compounds on the proliferation of Z-138 cells were detected by using the Cell-Titer Glo reagent. The concentrations of the cells were adjusted, and 180 μL was inoculated in each well of the 96-well plate (500/well) and equilibrated for 10-15 minutes at 37° C., 5% CO2. 20 μL of a culture solution containing the compounds was added into each well with the final concentration reaching 0-300 nM (initial concentration: 300 nM, 3-fold dilution, for 10 points), and the DMSO content was 0.1%. The cell plate was placed at 37° C., 5% CO2 and incubated for 8 days. Culture solution was replaced at day 4: 100 μL of the supernatant was slowly aspirated and 100 μL of a fresh culture solution containing the compounds was provided as a supplement while the concentrations of the compounds were held constant. The cell viability was detected by using the Cell-Titer Glo reagent.

[2] = target: T1, PRMT5/MEP50 (Homo sapiens, UniProt O14744); experiment: PRMT5 enzymatic activity inhibition experiment (AlphaScreen); type: biochemical; conditions: PRMT5/MEP50, Histone H4 peptide substrate; read-out: Inhibition of enzymatic activity IC50
T1 construct: purchased BPS Bioscience Inc. (USA)
From the text: Materials: PRMT5/MEP50 proteins were purchased from BPS Bioscience Inc. (USA); Histone H4 Peptide substrate was purchased from Sangon Biotech (Shanghai) Co., Ltd.; Anti-Histone H4 (symmetric dimethyl R3) antibody—ChIP Grade was purchased from Abcam PLC. (USA); S-(5′-Adenosyl)-L-methionine chloride dihydrochloride was purchased from Sigma PLC. (USA); 384-well plate, AlphaScreen Streptavidin Donor beads, AlphaScreen Protein A Acceptor beads, and Envision 2104 multi-label Reader were purchased from Perkin-Elmer Instruments (USA) Corporation; and Echo 550 Liquid Handler was purchased from Labcyte Inc. (USA).
Enzymatic activity assay: The compounds were added into a 384-well plate by using the Echo 550 Liquid Handler with the final concentration of 0-1000 nM (initial concentration: 1000 nM, 3-fold dilution, for 10 points), and the DMSO content was 0.5%. 10 μL of a 2× PRMT5/MEP50 solution was added into each well and incubated at room temperature for 30 minutes. 10 μL of 2× PRMT5/MEP50 substrate solution was added to each well to start the reaction and incubated at room temperature for 60 minutes. A 6× detection reagent containing AlphaScreen Protein A Acceptor beads and Anti-Histone H4 (symmetric dimethyl R3) antibodies was prepared and 5 μL was added to each well. The plate was incubated at room temperature for 60 minutes. A 6× detection reagent containing AlphaScreen Streptavidin Donor beads was prepared and 5 μL was added to each well. The plate was incubated at room temperature for 60 minutes. The signal values were detected by using the Envision.

T1 sequence (O14744 2-637 limits assumed): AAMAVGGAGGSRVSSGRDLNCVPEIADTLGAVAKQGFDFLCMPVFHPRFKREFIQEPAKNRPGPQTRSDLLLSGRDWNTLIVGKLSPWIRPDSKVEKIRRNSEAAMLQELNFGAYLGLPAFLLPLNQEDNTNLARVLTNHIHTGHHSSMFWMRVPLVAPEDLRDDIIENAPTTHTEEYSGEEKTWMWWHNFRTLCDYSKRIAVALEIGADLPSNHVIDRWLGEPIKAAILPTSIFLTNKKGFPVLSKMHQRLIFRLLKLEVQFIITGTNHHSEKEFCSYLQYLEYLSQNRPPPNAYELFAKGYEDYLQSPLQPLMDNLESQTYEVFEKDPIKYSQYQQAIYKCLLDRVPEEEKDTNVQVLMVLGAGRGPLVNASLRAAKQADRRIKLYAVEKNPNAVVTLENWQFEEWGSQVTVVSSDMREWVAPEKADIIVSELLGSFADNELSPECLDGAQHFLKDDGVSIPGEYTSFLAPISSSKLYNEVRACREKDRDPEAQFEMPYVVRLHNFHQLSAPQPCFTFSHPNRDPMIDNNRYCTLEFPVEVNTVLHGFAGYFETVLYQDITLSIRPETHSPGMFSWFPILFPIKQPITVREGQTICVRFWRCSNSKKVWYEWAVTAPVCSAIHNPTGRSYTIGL
T1 sequence (Q9BQA1 2-342 partner limits assumed): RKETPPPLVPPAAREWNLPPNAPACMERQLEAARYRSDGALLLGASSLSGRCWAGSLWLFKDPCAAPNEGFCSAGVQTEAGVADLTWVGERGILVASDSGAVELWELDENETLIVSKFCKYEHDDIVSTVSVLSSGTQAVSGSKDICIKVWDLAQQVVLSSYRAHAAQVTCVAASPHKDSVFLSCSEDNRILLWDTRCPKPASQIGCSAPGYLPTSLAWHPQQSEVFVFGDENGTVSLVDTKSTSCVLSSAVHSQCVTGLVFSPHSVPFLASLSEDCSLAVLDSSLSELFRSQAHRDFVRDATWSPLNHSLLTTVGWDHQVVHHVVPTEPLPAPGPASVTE

SMILES	IC50 [1] [nM]	IC50 [2] [nM]
Cl.[2H]C([2H])([2H])OC1CC2(CCN(C(=O)c3ccc4c(c3)N(CC)CCN(C[C@@H](O)[C@@H]3Cc5ccccc5CN3)C4=O)CC2)C1 [Compound 027, 1-ethyl-4-((R)-2-hydroxy-2-((S)-1,2,3,4-tetrahydroisoquinolin-3-yl)ethyl)-8-(2-(methoxy-d3)-7-azaspiro[3.5]nonane-7-carbonyl)-1,2,3,4-tetrahydro-5H-benzo[e][1,4]diazepin-5-one hydrochloride]	2.36	–
CCN1CCN(C[C@@H](O)[C@@H]2Cc3ccccc3CN2)C(=O)c2ccc(C(=O)N3CC4COCC4C3)cc21 (stereo partly drawn) [Compound 023, 1-ethyl-8-(hexahydro-1H-furo[3,4-c]pyrrole-5-carbonyl)-4-((R)-2-hydroxy-2-((S)-1,2,3,4-tetrahydroisoquinolin-3-yl)ethyl)-1,2,3,4-tetrahydro-5H-benzo[e][1,4]diazepin-5-one hydrochloride]	16.8	–
CCN1CCN(C[C@@H](O)[C@@H]2Cc3ccccc3CN2)C(=O)c2ccc(C(=O)N3CCC4(CC4)C(F)(F)C3)cc21 [Compound 012, 8-(4,4-difluoro-6-azaspiro[2.5]octane-6-carbonyl)-1-ethyl-4-((R)-2-hydroxy-2-((S)-1,2,3,4-tetrahydroisoquinolin-3-yl)ethyl)-1,2,3,4-tetrahydro-5H-benzo[e][1,4]diazepin-5-one hydrochloride]	4.09	–
CCN1CCN(C[C@@H](O)[C@@H]2Cc3ccccc3CN2)C(=O)c2ccc(C(=O)N3CCC4(CC3)CC(=O)C4)cc21 [Compound 026, 1-ethyl-4-((R)-2-hydroxy-2-((S)-1,2,3,4-tetrahydroisoquinolin-3-yl)ethyl)-8-(2-oxo-7-azaspiro[3.5]nonane-7-carbonyl)-1,2,3,4-tetrahydro-5H-benzo[e][1,4]diazepin-5-one]	5.62	–
O=C1c2ccc(C(=O)N3C4CCC3COC4)cc2OCCN1C[C@@H](O)[C@@H]1Cc2ccccc2CN1 [Compound 007, 8-(3-oxa-8-azabicyclo[3.2.1]octane-8-carbonyl)-4-((R)-2-hydroxy-2-((S)-1,2,3,4-tetrahydroisoquinolin-3-yl)ethyl)-3,4-dihydrobenzo[f][1,4]oxazepin-5(2H)-one]	7.55	7.66
CCN1CCN(C[C@@H](O)[C@@H]2Cc3ccccc3CN2)C(=O)c2ccc(C(=O)N3CCN(C(C)=O)CC3)cc21 [Compound 015, 8-(4-acetylpiperazine-1-carbonyl)-1-ethyl-4-((R)-2-hydroxy-2-((S)-1,2,3,4-tetrahydroisoquinolin-3-yl)ethyl)-1,2,3,4-tetrahydro-5H-benzo[e][1,4]diazepin-5-one hydrochloride]	11.1	–
CCN1CCN(C[C@@H](O)[C@@H]2Cc3ccccc3CN2)C(=O)c2ccc(C(=O)N3CC4(CCC(OC)CC4)C3)cc21 [Compound 011, 1-ethyl-4-((R)-2-hydroxy-2-((S)-1,2,3,4-tetrahydroisoquinolin-3-yl)ethyl)-8-(7-methoxy-2-azaspiro[3.5]nonane-2-carbonyl)-1,2,3,4-tetrahydro-5H-benzo[e][1,4]diazepin-5-one hydrochloride]	2.2	–
CCN1CCN(C[C@@H](O)[C@@H]2Cc3ccccc3CN2)C(=O)c2ccc(C(=O)N3CCC4(CC3)CC(N(C)C)C4)cc21 [Compound 021, 8-(2-(dimethylamino)-7-azaspiro[3.5]nonane-7-carbonyl)-1-ethyl-4-((R)-2-hydroxy-2-((S)-1,2,3,4-tetrahydroisoquinolin-3-yl)ethyl)-1,2,3,4-tetrahydro-5H-benzo[e][1,4]diazepin-5-one hydrochloride]	8.35	–
CCN1CCN(C[C@@H](O)[C@@H]2Cc3ccccc3CN2)C(=O)c2ccc(C(=O)N3CCC4(CCOCC4)C3)cc21 [Compound 010, 1-ethyl-4-((R)-2-hydroxy-2-((S)-1,2,3,4-tetrahydroisoquinolin-3-yl)ethyl)-8-(8-oxa-2-azaspiro[4.5]decane-2-carbonyl)-1,2,3,4-tetrahydro-5H-benzo[e][1,4]diazepin-5-one hydrochloride]	1.93	–
CCN1CCN(C[C@@H](O)[C@@H]2Cc3ccccc3CN2)C(=O)c2ccc(C(=O)N3C4CCC3CC(O)C4)cc21 (stereo partly drawn) [Compound 022, 1-ethyl-4-((R)-2-hydroxy-2-((S)-1,2,3,4-tetrahydroisoquinolin-3-yl)ethyl)-8-(3-hydroxy-8-azabicyclo[3.2.1]octane-8-carbonyl)-1,2,3,4-tetrahydro-5H-benzo[e][1,4]diazepin-5-one hydrochloride]	14.7	–
CCN(CC)C(=O)c1ccc2c(c1)N(CC)CCN(C[C@@H](O)[C@@H]1Cc3ccccc3CN1)C2=O [Compound 019, N,N,1-triethyl-4-((R)-2-hydroxy-2-((S)-1,2,3,4-tetrahydroisoquinolin-3-yl)ethyl)-5-oxo-2,3,4,5-tetrahydro-1H-benzo[e][1,4]diazepine-8-carboxamide hydrochloride]	20.4	–
CCN1CCN(C[C@@H](O)[C@@H]2Cc3ccccc3CN2)C(=O)c2ccc(C(=O)N3CCC4(CC3)CC4(F)F)cc21 [Compound 013, 8-(1,1-difluoro-6-azaspiro[2.5]octane-6-carbonyl)-1-ethyl-4-((R)-2-hydroxy-2-((S)-1,2,3,4-tetrahydroisoquinolin-3-yl)ethyl)-1,2,3,4-tetrahydro-5H-benzo[e][1,4]diazepin-5-one hydrochloride]	2.37	–
CCN1CCN(C[C@@H](O)[C@@H]2Cc3ccccc3CN2)C(=O)c2ccc(C(=O)N3CC4(COC4)C3)cc21 [Compound 025, 1-ethyl-4-((R)-2-hydroxy-2-((S)-1,2,3,4-tetrahydroisoquinolin-3-yl)ethyl)-8-(2-oxa-6-azaspiro[3.3]heptane-6-carbonyl)-1,2,3,4-tetrahydro-5H-benzo[e][1,4]diazepin-5-one]	138	–
CCN1CCN(C[C@@H](O)[C@@H]2Cc3ccccc3CN2)C(=O)c2ccc(C(=O)N3CCOCC3)cc21 [Compound 014, 1-ethyl-4-((R)-2-hydroxy-2-((S)-1,2,3,4-tetrahydroisoquinolin-3-yl)ethyl)-8-(morpholine-4-carbonyl)-1,2,3,4-tetrahydro-5H-benzo[e][1,4]diazepin-5-one hydrochloride]	11.7	–
CCN1CCN(C[C@@H](O)[C@@H]2Cc3ccccc3CN2)C(=O)c2ccc(C(=O)N(C)CCc3ccc(F)cc3)cc21 [Compound 017, 1-ethyl-N-(4-fluorophenethyl)-4-((R)-2-hydroxy-2-((S)-1,2,3,4-tetrahydroisoquinolin-3-yl)ethyl)-N-methyl-5-oxo-2,3,4,5-tetrahydro-1H-benzo[e][1,4]diazepine-8-carboxamide hydrochloride]	27.6	–
CCN1CCN(C[C@@H](O)[C@@H]2Cc3ccccc3CN2)C(=O)c2ccc(C(=O)N(C)CCc3cccnc3)cc21 [Compound 018, 1-ethyl-4-((R)-2-hydroxy-2-((S)-1,2,3,4-tetrahydroisoquinolin-3-yl)ethyl)-N-methyl-5-oxo-N-(2-(pyridin-3-yl)ethyl)-2,3,4,5-tetrahydro-1H-benzo[e][1,4]diazepine-8-carboxamide hydrochloride]	26	–
CCN1CCN(C[C@@H](O)[C@@H]2Cc3ccccc3CN2)C(=O)c2ccc(C(=O)N(C)Cc3ccccc3)cc21 [Compound 016, N-benzyl-1-ethyl-4-((R)-2-hydroxy-2-((S)-1,2,3,4-tetrahydroisoquinolin-3-yl)ethyl)-N-methyl-5-oxo-2,3,4,5-tetrahydro-1H-benzo[e][1,4]diaza-8-carboxamide hydrochloride]	45.1	–
CCN1CCN(C[C@@H](O)[C@@H]2Cc3ccccc3CN2)C(=O)c2ccc(C(=O)N3C4CCCC3COC4)cc21 [Compound 020, 8-(3-oxa-9-azabicyclo[3,3,1]nonane-9-carbonyl)-1-ethyl-4-((R)-2-hydroxy-2-((S)-1,2,3,4-tetrahydroisoquinolin-3-yl)ethyl)-1,2,3,4-tetrahydro-5H-benzo[e][1,4]diazepin-5-one hydrochloride]	3.71	–
